Data from ChEMBL document CHEMBL1151438, “In vitro resistance study of rupintrivir, a novel inhibitor of human rhinovirus 3C protease” (Antimicrob Agents Chemother, 2007).

Assays:
[1] = tested on: rhinovirus A39; test: Antiviral activity against HRV39 with 3C protease […], L136/F mutation infected in human H1-HeLa cells assessed as virus-induced cytopathic effect after 5 passages for 29 days by XTT assay; assay type: functional, organism-based; conditions: Rhinovirus A, 696 h
[2] = tested on: rhinovirus B14; test: Ratio of EC50 for HRV14 infected in human H1-HeLa cells after 3 passages for 14 days to EC50 for wild type HRV14 infected in human H1-HeLa cells; assay type: functional
[3] = tested on: rhinovirus A39; test: Ratio of EC50 for HRV39 with 3C protease S105S/T, N130K, L136F mutation infected in human H1-HeLa cells after 9 passages for 50 days to EC50 for wild type HRV39 infected in human H1-HeLa cells; assay type: functional
[4] = tested on: rhinovirus B14; test: Antiviral activity against HRV14 with 3C protease T129A, T131A, Y139H, T143P mutation infected in human H1-HeLa cells assessed as virus-induced cytopathic effect after 3 days by XTT assay; assay type: functional, organism-based; conditions: Rhinovirus B, 72 h
[5] = tested on: rhinovirus A2; test: Ratio of EC50 for HRV2 infected in human H1-HeLa cells after 3 passages for 17 days to EC50 for wild type HRV2 infected in human H1-HeLa cells; assay type: functional
[6] = tested on: rhinovirus B14; test: Antiviral activity against wild type HRV14 infected in human H1-HeLa cells assessed as virus-induced cytopathic effect after 3 days by XTT assay; assay type: functional, organism-based; conditions: Rhinovirus B, 72 h
[7] = tested on: rhinovirus B14; test: Ratio of EC50 for HRV14 infected in human H1-HeLa cells after 7 passages for 33 days to EC50 for wild type HRV14 infected in human H1-HeLa cells; assay type: functional
[8] = tested on: Human rhinovirus sp.; test: Ratio of EC50 for HRV Hanks infected in human H1-HeLa cells after 2 passage for 17 days to EC50 for wild type HRV Hanks infected in human H1-HeLa cells; assay type: functional
[9] = tested on: Human rhinovirus sp.; test: Antiviral activity against HRV Hanks with 3C protease T130A mutation infected in human H1-HeLa cells assessed as virus-induced cytopathic effect after 6 passages for 40 days by plaque reduction assay; assay type: functional, organism-based
[10] = tested on: rhinovirus A39; test: Ratio of EC50 for HRV39 infected in human H1-HeLa cells after 4 passages for 24 days to EC50 for wild type HRV39 infected in human H1-HeLa cells; assay type: functional
[11] = tested on: rhinovirus A2; test: Antiviral activity against wild type HRV2 infected in human H1-HeLa cells assessed as virus-induced cytopathic effect after 3 days by XTT assay; assay type: functional, organism-based; conditions: Rhinovirus A, 72 h
[12] = tested on: rhinovirus B14; test: Ratio of EC50 for HRV14 infected in human H1-HeLa cells after 5 passages for 22 days to EC50 for wild type HRV14 infected in human H1-HeLa cells; assay type: functional
[13] = tested on: Human rhinovirus sp.; test: Ratio of EC50 for HRV Hanks infected in human H1-HeLa cells after 1 passage for 7 days to EC50 for wild type HRV Hanks infected in human H1-HeLa cells; assay type: functional
[14] = tested on: rhinovirus B14; test: Antiviral activity against HRV14 with 3C protease T129A mutation infected in human H1-HeLa cells assessed as virus-induced cytopathic effect after 3 days by XTT assay; assay type: functional, organism-based; conditions: Rhinovirus B, 72 h

CCOC(=O)/C=C/[C@H](C[C@@H]1CCNC1=O)NC(=O)[C@@H](CC(=O)[C@@H](NC(=O)c1cc(C)on1)C(C)C)Cc1ccc(F)cc1 [RUPINTRIVIR]
EC50 [1]: 83 nM | Ratio EC50 [2]: 5 | Ratio EC50 [3]: 4 | EC50 [4]: 268 nM | Ratio EC50 [5]: 3 | EC50 [6]: 21 nM | Ratio EC50 [7]: 30 | Ratio EC50 [8]: 2 | EC50 [9]: 51 nM | Ratio EC50 [10]: 6 | EC50 [11]: 30 nM | Ratio EC50 [12]: 20 | Ratio EC50 [13]: 1 | EC50 [14]: 14 nM
